{"source": "patent US7638639B2", "about": "“Substituted pyrrolidine and related compounds” (Theravance, Inc., priority 2003, dated 2009)", "test_system": "methacholine-induced decrease in mean arterial pressure", "assay": "Methacholine-induced depressor responses in conscious guinea pigs", "type": "in vivo", "details": "guinea pig, inhalation", "excerpt": "Methacholine-Induced Depressor Responses in Conscious Guinea Pigs\nHealthy, adult, male Sprague-Dawley guinea pigs (Harlan, Indianapolis, Ind.), weighing between 200 and 300 g were used in these studies. Under isoflurane anesthesia (to effect), animals were instrumented with common carotid artery and jugular vein catheters (PE-50 tubing). The catheters were exteriorized utilizing a subcutaneous tunnel to the subscapular area. All surgical incisions were sutured with 4-0 Ethicon Silk and the catheters locked with heparin (1000 units/mL). Each animal was administered saline (3 mL, SC) at the end of surgery as well as buprenorphine (0.05 mg/kg, IM). Animals were allowed to recover on a heating pad before being returned to their holding rooms.\nApproximately 18 to 20 hours following surgery, the animals were weighed and the carotid artery catheter on each animal was connected to a transducer for recording arterial pressure. Arterial pressure and heart rate was recorded using a Biopac MP-100 Acquisition System. Animals were allowed to acclimate and stabilize for a period of 20 minutes.\nEach animal was challenged with methylcholine (MCh) (0.3 mg/kg, iv) administer through the jugular venous line and the cardiovascular response was monitored for 10 minutes. […] At 1.5 and 24 h post-dosing, the animals were re-challenged with MCh (0.3 mg/kg, iv) and the hemodynamic response was determined. […]", "data": [{"smiles": "CNCCCCCCCCN1CC[C@@H](C(C(N)=O)(c2ccccc2)c2ccccc2)C1", "note": "[Example 1, 2-[(S)-1-(8-Methylaminooctyl)pyrrolidin-3-yl]-2,2-diphenylacetamide]", "values": [{"measurement": "apparent lung-selectivity index (anti-depressor ID50 / bronchoprotective ID50)", "result": "greater than 5"}]}]}
